Series [1] concerns H2228 cells. To be noted: H2228, Koivunen et al. 2008; cited from earlier work.
For series [2], the system named is H2228 cells. The experiment in a line: cytotoxic activity, H2228. Type of series: cell-based. To be noted: Homo sapiens, NCI-H2228. How it is done:
(§1) The cytotoxic assay was performed as follows.
EML4-ALK gene translocation leads to a constitutive activation of ALK kinase and has been identified as a driver mutation in ˜5% of NSCLC adenocarcinoma (reviewed in Castro-Carpeno J. et al., Clin Transl Oncol. 13:774-779 (2011)). […] Unfortunately, ˜40% of EML4-ALK+ tumors are resistant to crizotinib. Additionally, tumors that are sensitive to crizotinib can rapidly develop resistance to the drug (Castro-Carpeno J. et al., Clin Transl Oncol. 13:774-779 (2011)).

Series [3] has as its system Parental HCC827 (Aichi) cells. The experiment in a line: in vitro cytotoxicity assay, parental HCC827 (Aichi). Type of series: cell-based. How it is done: as §1
(§2) The HCC827 ER cell line contains high MET gene copy number and the HCC827 EPR cell line carries T790M EGFR mutation (Suda K. et al. Clin Cancer Res 16: 5489 (2010)). These cell lines reflect the two major mechanisms of resistance against EGFR tyrosine kinase inhibitors (Sequist L. et al. Sci Transl Med 3: 75ra26 (2011)).

Series [4] has as its system HCC827-ER-E4 cell line. Briefly: in vitro cytotoxicity assay, HCC827-ER-E4.
Series [5] relates to HCC827 parental cell line. The experiment in a line: Western blot after 16 hour erlotinib treatment, HCC827 parental. Format: cell-based. To be noted: erlotinib 16 hours.
The subject of series [6] is HCC827-ER-E4 cell line. Briefly: Western blot after 16 hour erlotinib treatment, HCC827-ER-E4. To be noted: HCC827-ER-E4, erlotinib 16 hours. Format: cell-based. On the technique in general: A western blot detects proteins with antibodies after separation by electrophoresis.
The test system of series [7] is HCC827-ER cell line. The experiment in a line: in vitro cytotoxicity assay, HCC827-ER.
For series [8], the system named is H226 cell line. To be noted: H226, Yauch et al. 2005; cited from earlier work.
Series [9] concerns H226 cell line. The experiment in a line: in vitro cytotoxic assay, H226. Type of series: cell-based. How it is done:
as §1
NSCLC cell lines with mesenchymal histology are generally more resistant to gefitinib than those with epithelial histology (Yauch R L. et al. Clin Cancer Res 11: 8686 (2005)). […] H226 cell line is a squamous cell carcinoma with mesenchymal histology.

In another series the test system is HCC827 ER (Aichi) cells. The experiment in a line: in vitro cytotoxicity assay, HCC827 ER (Aichi). Format: cell-based. How it is done: as §1, §2
For another series, the system named is NCI-H1975 cell line. Briefly: in vitro cytotoxic assay (WST-8), NCI-H1975. Format: cell-based. How it is done:
NCI-H1975 cell line is a NSCLC adenocarcinoma cell line that carries both sensitizing (L858R) and resistant (T790M) EGFR mutations (Cosmic database, Wellcome Trust Sanger Institute), thus it closely mimics the EGFR kinase inhibitor resistant tumors found in the clinical setting.
as §1
(In general: Tetrazolium dyes change colour on reduction, which living cells bring about.)

For the next series, the system named is HCC827 cell line. The experiment in a line: in vitro cytotoxic assay, HCC827 in absence or presence of HGF.
The subject of series [10] is HCC827-ER-E4 cell line.
The next series has as its system HCC827 EPR (Aichi) cells. The experiment in a line: in vitro cytotoxicity assay, HCC827 EPR (Aichi). Format: cell-based. How it is done: as §1, §2
The target in series [11] is EGFR on parental HCC827 (Aichi) NSCLC cells (exon 19 deletion EGFR mutation) (UniProt P00533 25-1210). The experiment in a line: cell-based or functional assay.
Series [12] has as its system HCC827-ER cell line.
A further series has as its system Detroit 562. The experiment in a line: in vitro cytotoxicity assay, Detroit 562. Format: cell-based. The note with it: Detroit562.

Read-outs that look alike come from different tables or passages of the source.

With `COc1cc(N2CCC(N3CCN(C)CC3)CC2)ccc1Nc1ncc(Cl)c(Nc2ccccc2S(=O)(=O)C(C)C)n1` [TAE684], the “resistance of cell line” value in the series with H2228 cells [1] is “resistant”.
For orientation: EC50 means the concentration needed to bring the measured effect to its halfway point. Regarding `C[C@@H](Oc1cc(-c2cnn(C3CCNCC3)c2)cnc1N)c1c(Cl)ccc(F)c1Cl` [crizotinib], in the series on H2228 cells [2] (H2228, EML4-ALK translocation, read-out: EC50), the concentration giving a half-maximal response (EC50) stood at 3.82 µM.
As to `C#Cc1cccc(Nc2ncnc3cc(OCCOC)c(OCCOC)cc23)c1` [erlotinib], a half-maximal response with H2228 cells [2] (EC50) required 26.1 µM. The “sensitivity” value in [3] is given as “highly sensitive”. Also, the “cytotoxic effect” value in the series on HCC827-ER-E4 cell line [4] is on record as “maintained erlotinib resistance”. Further, in series [5], the AKT level result is “reduced”, the AKT phosphorylation entry was “inhibited”, the EGFR phosphorylation result is on record as “completely inhibited” and the ERK1/2 phosphorylation result is given as “inhibited”. In addition, in the series on HCC827-ER-E4 cell line [6], the AKT level result is “not changed”, the EGFR phosphorylation entry is listed as “completely inhibited”, the ERK1/2 phosphorylation entry was “less impact” and the “phospho AKT (pAKT) level” value was “little change”. The “cytotoxic effect” value in the series on HCC827-ER cell line [7] was “highly resistant”.
On to `COc1cc2ncnc(Nc3ccc(F)c(Cl)c3)c2cc1OCCCN1CCOCC1` [gefitinib], for which, in the series with H226 cell line [8], the “resistance of cell line” value is on record as “resistant”.

B1: huEGFR-7R antibody (antibody, V domains shown)
VH: QVQLVQSGAEVAKPGASVKLSCKASGYTFTSYWMQWVKQRPGQGLECIGTIYPGDGDTTYTQKFQGKATLTADKSSSTAYMQLSSLRSEDSAVYYCARYDAPGYAMDYWGQGTLVTVSS
VL: DIQMTQSPSSLSASVGDRVTITCRASQDINNYLAWYQHKPGKGPKLLIHYTSTLHPGIPSRFSGSGSGRDYSFSISSLEPEDIATYYCLQYDNLLYTFGQGTKLEIKR
As for B1, the “effect on tumor cell growth” value is recorded as “neither the huEGFR-7R antibody nor cetuximab had effect” in the series on H226 cell line [9] and “had no effect” in the series on Detroit 562. Moreover, the “sensitivity / resistance” value with HCC827 ER (Aichi) cells and in the series on HCC827 EPR (Aichi) cells was “highly resistant” each time. For the same molecule, the “sensitivity” value in series [3] is recorded as “highly sensitive”. Also, the “cytotoxic effect” value in the series on NCI-H1975 cell line is given as “did not have any effect”; in the series on HCC827-ER-E4 cell line [10], “little effect”; with HCC827-ER cell line [12] it was “little effect”. Also, the “cell growth inhibition” value in the series on HCC827 cell line (HCC827 + 50 ng/mL HGF) is “further reduced”; with HCC827 cell line (HCC827, absence of HGF), “marginal activities”. The “EC50, in vitro cytotoxicity (WST-8 cell viability) on parental HCC827 (Aichi) cells” value in [11] is 0.000426 µM.
